# Assay results taken from ChEMBL document CHEMBL5696443 (Clin Cancer Res, 2016).
# Assays:
# [1] = molecular target: Tyrosine-protein kinase HCK (Homo sapiens, UniProt P08631); experiment: Inhibition of human HCK using KVEKIGEGTYGVVYK as substrate in presence of [gamma33P]-ATP by HotSpot assay
# [2] = molecular target: Serine/threonine-protein kinase SIK2 (Homo sapiens, UniProt Q9H0K1); experiment: Inhibition of human SIK2 using AMARAASAAALARRR as substrate in presence of [gamma33P]-ATP by HotSpot assay
# [3] = molecular target: Tyrosine-protein kinase receptor UFO (Homo sapiens) (UniProt P30530); experiment: Inhibition of human AXL at 1 uM using poly (Glu, Tyr)4:1 as substrate in presence of [gamma33P]-ATP by HotSpot assay relative to control
# [4] = molecular target: Cyclin-dependent kinase 5/CDK5 activator 1 (Homo sapiens) (UniProt Q00535+Q15078); experiment: Inhibition of human CDK5/p35 at 1 uM using RB protein as substrate in presence of [gamma33P]-ATP by HotSpot assay relative to control; format: protein-complex assay
# [5] = molecular target: Misshapen-like kinase 1 (Homo sapiens) (UniProt Q8N4C8); experiment: Inhibition of human MINK1 at 1 uM using MBP as substrate in presence of [gamma33P]-ATP by HotSpot assay relative to control
# [6] = molecular target: Myosin light chain kinase, smooth muscle (Homo sapiens) (UniProt Q15746); experiment: Inhibition of human MYLK at 1 uM using KKLNRTLSFAEPG as substrate in presence of [gamma33P]-ATP by HotSpot assay relative to control
# [7] = molecular target: Serine/threonine-protein kinase Nek7 (Homo sapiens) (UniProt Q8TDX7); experiment: Inhibition of human NEK7 at 1 uM using casein as substrate in presence of [gamma33P]-ATP by HotSpot assay relative to control
# [8] = system: Platelet-derived growth factor receptor alpha (Homo sapiens), P16234 [D842V]; experiment: Inhibition of human PDGFRalpha D842V mutant at 1 uM using poly (Glu, Tyr)4:1 as substrate in presence of [gamma33P]-ATP by HotSpot assay relative to control
# [9] = system: Platelet-derived growth factor receptor alpha (Homo sapiens), P16234 [V561D]; experiment: Inhibition of human PDGFRalpha V561D mutant at 1 uM using poly (Glu, Tyr)4:1 as substrate in presence of [gamma33P]-ATP by HotSpot assay relative to control
# [10] = molecular target: Serine/threonine-protein kinase pim-1 (Homo sapiens) (UniProt P11309); experiment: Inhibition of human PIM1 at 1 uM using RSRHSSYPAGT as substrate in presence of [gamma33P]-ATP by HotSpot assay relative to control
# [11] = molecular target: Serine/threonine-protein kinase Sgk3 (Homo sapiens) (UniProt Q96BR1); experiment: Inhibition of human SGK3 at 1 uM using GRPRTSSFAEG as substrate in presence of [gamma33P]-ATP by HotSpot assay relative to control
# [12] = molecular target: Serine/threonine-protein kinase WNK2 (Homo sapiens) (UniProt Q9Y3S1); experiment: Inhibition of human WNK2 at 1 uM using MBP as substrate in presence of [gamma33P]-ATP by HotSpot assay relative to control
# [13] = system: Epidermal growth factor receptor (Homo sapiens), P00533 [UNDEFINED MUTATION]; details: BaF3, time 72.0 hrs
# [14] = system: Epidermal growth factor receptor (Homo sapiens), P00533 [L858R,T790M]; details: BaF3, time 72.0 hrs
# in vitro = details: mouse, BaF3 cells
# Chain of Myosin light chain kinase, smooth muscle (Homo sapiens) (Q15746 whole entry): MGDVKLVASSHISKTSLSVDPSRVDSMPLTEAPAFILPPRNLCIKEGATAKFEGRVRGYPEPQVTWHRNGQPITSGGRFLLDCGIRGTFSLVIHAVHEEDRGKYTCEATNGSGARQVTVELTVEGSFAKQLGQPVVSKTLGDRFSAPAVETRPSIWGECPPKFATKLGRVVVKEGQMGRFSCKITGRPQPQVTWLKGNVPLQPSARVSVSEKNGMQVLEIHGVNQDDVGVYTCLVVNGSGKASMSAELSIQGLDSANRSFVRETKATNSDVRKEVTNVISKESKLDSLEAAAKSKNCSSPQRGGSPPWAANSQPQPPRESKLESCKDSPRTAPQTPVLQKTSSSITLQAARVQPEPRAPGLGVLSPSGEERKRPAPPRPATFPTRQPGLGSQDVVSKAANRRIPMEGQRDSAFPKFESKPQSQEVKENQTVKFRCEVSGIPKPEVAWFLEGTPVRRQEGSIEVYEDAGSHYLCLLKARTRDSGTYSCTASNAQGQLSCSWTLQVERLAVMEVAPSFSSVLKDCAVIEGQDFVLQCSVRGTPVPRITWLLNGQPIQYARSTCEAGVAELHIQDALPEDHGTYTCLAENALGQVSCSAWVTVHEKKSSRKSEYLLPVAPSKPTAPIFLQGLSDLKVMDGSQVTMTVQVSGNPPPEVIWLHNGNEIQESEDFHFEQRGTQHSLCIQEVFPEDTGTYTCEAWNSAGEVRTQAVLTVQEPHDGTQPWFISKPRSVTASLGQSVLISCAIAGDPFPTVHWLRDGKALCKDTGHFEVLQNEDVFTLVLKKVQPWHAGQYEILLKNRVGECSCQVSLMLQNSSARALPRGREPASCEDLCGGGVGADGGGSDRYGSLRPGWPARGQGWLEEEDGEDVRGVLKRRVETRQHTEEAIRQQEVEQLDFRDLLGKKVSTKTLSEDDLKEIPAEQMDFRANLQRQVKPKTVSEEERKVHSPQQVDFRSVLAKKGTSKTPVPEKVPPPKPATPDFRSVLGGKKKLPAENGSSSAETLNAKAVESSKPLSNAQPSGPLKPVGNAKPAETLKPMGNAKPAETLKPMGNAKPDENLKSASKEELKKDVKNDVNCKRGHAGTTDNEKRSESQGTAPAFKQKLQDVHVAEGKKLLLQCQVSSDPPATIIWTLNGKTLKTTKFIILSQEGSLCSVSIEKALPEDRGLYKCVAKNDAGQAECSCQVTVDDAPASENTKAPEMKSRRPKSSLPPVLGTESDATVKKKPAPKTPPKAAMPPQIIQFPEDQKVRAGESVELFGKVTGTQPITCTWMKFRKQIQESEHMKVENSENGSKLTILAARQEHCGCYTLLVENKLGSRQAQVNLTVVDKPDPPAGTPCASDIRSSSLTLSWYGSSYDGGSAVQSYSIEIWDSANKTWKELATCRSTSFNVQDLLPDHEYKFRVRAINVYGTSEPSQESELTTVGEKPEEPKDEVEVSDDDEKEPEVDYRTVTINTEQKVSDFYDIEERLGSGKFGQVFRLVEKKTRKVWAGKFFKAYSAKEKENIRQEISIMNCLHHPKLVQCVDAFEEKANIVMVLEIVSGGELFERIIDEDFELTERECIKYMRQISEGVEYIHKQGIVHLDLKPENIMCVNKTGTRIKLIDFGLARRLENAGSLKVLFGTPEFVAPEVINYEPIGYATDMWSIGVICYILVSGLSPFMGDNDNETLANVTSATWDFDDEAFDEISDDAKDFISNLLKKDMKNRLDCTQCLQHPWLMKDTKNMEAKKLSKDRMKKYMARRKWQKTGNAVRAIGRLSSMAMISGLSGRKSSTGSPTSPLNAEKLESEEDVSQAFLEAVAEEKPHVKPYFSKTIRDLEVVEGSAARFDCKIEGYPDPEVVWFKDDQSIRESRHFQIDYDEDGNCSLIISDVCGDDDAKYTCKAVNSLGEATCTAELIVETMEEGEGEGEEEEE
# Chain of Platelet-derived growth factor receptor alpha (Homo sapiens), P16234 [V561D] (P16234 whole entry V561D): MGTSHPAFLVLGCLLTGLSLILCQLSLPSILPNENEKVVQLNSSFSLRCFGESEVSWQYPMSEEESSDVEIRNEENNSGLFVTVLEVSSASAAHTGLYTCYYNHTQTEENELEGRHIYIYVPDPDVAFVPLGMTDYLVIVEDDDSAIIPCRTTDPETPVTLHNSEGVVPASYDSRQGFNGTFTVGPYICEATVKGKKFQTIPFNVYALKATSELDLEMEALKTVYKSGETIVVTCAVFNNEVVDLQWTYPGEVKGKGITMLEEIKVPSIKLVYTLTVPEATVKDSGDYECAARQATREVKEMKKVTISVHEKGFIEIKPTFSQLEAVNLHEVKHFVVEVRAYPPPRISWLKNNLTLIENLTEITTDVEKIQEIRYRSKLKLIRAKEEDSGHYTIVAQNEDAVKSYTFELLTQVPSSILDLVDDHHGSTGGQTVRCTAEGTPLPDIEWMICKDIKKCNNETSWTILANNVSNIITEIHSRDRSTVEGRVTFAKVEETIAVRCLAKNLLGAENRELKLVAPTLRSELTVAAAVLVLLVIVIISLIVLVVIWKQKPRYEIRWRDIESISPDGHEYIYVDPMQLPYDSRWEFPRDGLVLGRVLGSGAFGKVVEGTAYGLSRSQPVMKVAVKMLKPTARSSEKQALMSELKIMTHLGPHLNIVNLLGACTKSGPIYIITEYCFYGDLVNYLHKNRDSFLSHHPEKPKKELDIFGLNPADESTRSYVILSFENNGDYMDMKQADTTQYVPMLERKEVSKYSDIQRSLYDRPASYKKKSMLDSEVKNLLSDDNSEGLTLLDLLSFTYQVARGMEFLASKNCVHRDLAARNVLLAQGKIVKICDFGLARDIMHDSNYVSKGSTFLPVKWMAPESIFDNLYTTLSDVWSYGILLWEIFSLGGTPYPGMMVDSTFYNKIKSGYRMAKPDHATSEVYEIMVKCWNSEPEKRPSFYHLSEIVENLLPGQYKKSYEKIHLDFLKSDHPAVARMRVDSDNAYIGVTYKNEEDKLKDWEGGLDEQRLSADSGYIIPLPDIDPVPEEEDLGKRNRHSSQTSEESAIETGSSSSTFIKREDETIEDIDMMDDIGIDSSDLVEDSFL
# Chain of Serine/threonine-protein kinase pim-1 (Homo sapiens) (P11309 whole entry, looked up): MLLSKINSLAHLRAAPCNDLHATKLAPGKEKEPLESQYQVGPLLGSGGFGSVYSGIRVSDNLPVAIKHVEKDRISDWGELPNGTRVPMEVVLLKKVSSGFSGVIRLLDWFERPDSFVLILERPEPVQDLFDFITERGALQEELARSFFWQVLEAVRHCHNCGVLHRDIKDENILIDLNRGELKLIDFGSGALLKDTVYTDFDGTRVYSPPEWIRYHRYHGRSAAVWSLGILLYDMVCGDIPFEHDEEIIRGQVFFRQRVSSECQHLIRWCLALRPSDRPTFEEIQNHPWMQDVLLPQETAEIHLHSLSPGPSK
# Chain of Serine/threonine-protein kinase Sgk3 (Homo sapiens) (Q96BR1 whole entry): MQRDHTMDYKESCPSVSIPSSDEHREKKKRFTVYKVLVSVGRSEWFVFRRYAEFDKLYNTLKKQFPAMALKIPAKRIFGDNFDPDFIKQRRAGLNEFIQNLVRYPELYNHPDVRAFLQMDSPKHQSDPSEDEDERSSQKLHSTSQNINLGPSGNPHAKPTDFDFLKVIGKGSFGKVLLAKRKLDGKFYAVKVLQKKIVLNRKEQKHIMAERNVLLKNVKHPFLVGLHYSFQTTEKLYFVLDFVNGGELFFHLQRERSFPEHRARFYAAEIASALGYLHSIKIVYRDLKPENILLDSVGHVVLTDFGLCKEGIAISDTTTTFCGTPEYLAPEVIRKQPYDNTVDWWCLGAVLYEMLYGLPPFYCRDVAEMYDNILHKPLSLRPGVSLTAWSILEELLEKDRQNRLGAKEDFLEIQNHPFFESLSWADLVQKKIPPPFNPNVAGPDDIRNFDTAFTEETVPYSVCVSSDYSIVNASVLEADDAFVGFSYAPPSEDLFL
# Chain of Platelet-derived growth factor receptor alpha (Homo sapiens), P16234 [D842V] (P16234 whole entry D842V): as the sequence (P16234 whole entry V561D) above, with D561V, D842V counted along it
# Chain of Epidermal growth factor receptor (Homo sapiens), P00533 [UNDEFINED MUTATION] (P00533 whole entry, looked up, stated change not applied): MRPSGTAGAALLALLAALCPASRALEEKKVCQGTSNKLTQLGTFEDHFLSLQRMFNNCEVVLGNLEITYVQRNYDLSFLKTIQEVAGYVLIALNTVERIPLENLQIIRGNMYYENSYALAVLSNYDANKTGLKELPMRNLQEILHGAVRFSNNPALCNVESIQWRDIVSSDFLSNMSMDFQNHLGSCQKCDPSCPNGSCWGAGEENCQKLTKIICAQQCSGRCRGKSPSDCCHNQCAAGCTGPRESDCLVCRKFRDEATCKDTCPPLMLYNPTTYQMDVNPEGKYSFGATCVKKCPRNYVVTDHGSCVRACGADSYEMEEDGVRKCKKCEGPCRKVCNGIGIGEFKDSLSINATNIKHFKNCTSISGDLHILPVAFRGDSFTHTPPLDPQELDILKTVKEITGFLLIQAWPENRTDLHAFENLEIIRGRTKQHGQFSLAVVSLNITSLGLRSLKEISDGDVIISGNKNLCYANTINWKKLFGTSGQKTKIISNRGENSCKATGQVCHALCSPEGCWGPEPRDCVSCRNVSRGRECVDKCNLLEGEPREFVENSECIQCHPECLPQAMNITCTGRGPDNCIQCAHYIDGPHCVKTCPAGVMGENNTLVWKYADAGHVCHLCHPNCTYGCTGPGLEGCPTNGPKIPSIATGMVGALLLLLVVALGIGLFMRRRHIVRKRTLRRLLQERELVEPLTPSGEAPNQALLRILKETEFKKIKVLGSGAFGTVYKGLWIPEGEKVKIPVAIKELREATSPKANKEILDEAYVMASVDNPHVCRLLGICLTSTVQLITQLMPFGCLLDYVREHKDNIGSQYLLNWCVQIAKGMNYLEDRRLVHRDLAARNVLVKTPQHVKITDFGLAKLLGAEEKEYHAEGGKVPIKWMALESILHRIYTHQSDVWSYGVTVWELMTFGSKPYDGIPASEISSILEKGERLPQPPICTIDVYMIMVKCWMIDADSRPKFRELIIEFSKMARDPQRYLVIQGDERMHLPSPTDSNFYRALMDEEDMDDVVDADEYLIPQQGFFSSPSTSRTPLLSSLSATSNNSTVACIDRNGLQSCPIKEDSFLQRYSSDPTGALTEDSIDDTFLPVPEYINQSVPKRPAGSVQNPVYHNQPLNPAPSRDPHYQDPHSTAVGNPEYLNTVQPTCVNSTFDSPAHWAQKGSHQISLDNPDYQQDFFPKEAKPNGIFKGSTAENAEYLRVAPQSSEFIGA
compound,measurement,setting,value
COc1cc(N2CCC(N3CCN(C)CC3)CC2)ccc1Nc1ncc(Cl)c(Nc2ccccc2P(C)(C)=O)n1 [BRIGATINIB],IC50,[1],198 nM
same,IC50,[2],466 nM
same,inhibition,[3],< 90%
same,inhibition,[4],< 90%
same,inhibition,[5],< 90%
same,inhibition,[6],< 90%
same,inhibition,[7],< 90%
same,inhibition,[8],< 90%
same,inhibition,[9],< 90%
same,inhibition,[10],< 90%
same,inhibition,[11],< 90%
same,inhibition,[12],< 90%
same,IC90,[13],314 nM
same,IC90,[14],2970 nM
same,IC50,in vitro,3210 nM
same,IC90,in vitro,9500 nM
